{"source": "patent US20190209465A1", "about": "“PROCESS FOR PREPARING PHARMACEUTICAL OPHTHALMIC COMPOSITIONS OF BRINZOLAMIDE” (priority 2016, published 2019)", "key": {"[1]": {"assay": "Solubility study of oil/surfactant combination (excess drug, heating, centrifugation, HPLC of supernatant)", "type": "physicochemical", "details": "for mg API dissolved temperature: on heating; for Assay: supernatant by HPLC", "method": "Additional solubility trials were planned in order to see the impact of surfactant/oil combination on solubility of Brinzolamide. 5 g of each of the vehicles of Table 2 was added in 10 ml beakers under stirring, containing excesses of drug. Afterwards, the mixture was heated to improve solubilization. After equilibrium was achieved, the mixture was centrifuged at 4000 rpm for 10 minutes and the supernatant was quantified by high-performance liquid chromatography."}, "[2]": {"assay": "Solubility study of oil/surfactant combination (excess drug, heating, centrifugation, HPLC of supernatant)", "type": "physicochemical", "details": "in PEG 200 (5 g), on heating"}, "[3]": {"assay": "Solubility study of ophthalmically acceptable excipients (visual, incremental addition of drug, then heating)", "type": "physicochemical"}, "[4]": {"details": "cited from earlier work"}, "[5]": {"details": "in Kolliphor EL + IPM (5 g + 1 g)"}, "[6]": {"details": "in Kolliphor EL + IPM (5 g + 3 g)"}, "[7]": {"details": "in Kolliphor EL + IPM (5 g + 5 g)"}, "[8]": {"details": "in Tween 80 + IPM + Kolliphor EL (5 g + 1 g + 3.1 g)"}, "[9]": {"details": "in Tween 80 + IPM + Kolliphor EL (5 g + 1 g + 4.6 g)"}, "[10]": {"details": "in Tween 80 + IPM + Kolliphor EL (5 g + 1 g + 12.5 g)"}}}
{"molecule": "CCN[C@H]1CN(CCCOC)S(=O)(=O)c2sc(S(N)(=O)=O)cc21", "note": "[Brinzolamide, (R)-4-ethylamino-3,4-dihydro-2-(3-methoxy) propyl-2H-thieno[3,2-e]-1,2-thiazine-6-sulfonamide 1, 1 dioxide]", "values": [{"measurement": "API dissolved", "setting": "[1]; in Kolliphor EL (5 g)", "result": 203.0, "unit": "mg/mL"}, {"measurement": "Total mg dissolved", "setting": "[1]; in Kolliphor EL (5 g)", "result": 1015.1, "unit": "mg"}, {"measurement": "mg API dissolved @ RT", "setting": "[1]; in Kolliphor EL (5 g)", "result": 502.6, "unit": "mg"}, {"measurement": "mg API dissolved temperature", "setting": "[1]; in Kolliphor EL (5 g)", "result": 512.5, "unit": "mg"}, {"measurement": "Assay", "setting": "[1]; in Kolliphor EL (5 g)", "result": 177.65, "unit": "mg/mL"}, {"measurement": "API dissolved", "setting": "[1]; [5]", "result": 167.1, "unit": "mg/mL"}, {"measurement": "Total mg dissolved", "setting": "[1]; [5]", "result": 1002.3, "unit": "mg"}, {"measurement": "mg API dissolved @ RT", "setting": "[1]; [5]", "result": 802.3, "unit": "mg"}, {"measurement": "mg API dissolved temperature", "setting": "[1]; [5]", "result": 200.0, "unit": "mg"}, {"measurement": "Assay", "setting": "[1]; [5]", "result": 104.70, "unit": "mg/mL"}, {"measurement": "API dissolved", "setting": "[1]; [6]", "result": 126.6, "unit": "mg/mL"}, {"measurement": "Total mg dissolved", "setting": "[1]; [6]", "result": 1012.7, "unit": "mg"}, {"measurement": "mg API dissolved @ RT", "setting": "[1]; [6]", "result": 500.5, "unit": "mg"}, {"measurement": "mg API dissolved temperature", "setting": "[1]; [6]", "result": 512.2, "unit": "mg"}, {"measurement": "Assay", "setting": "[1]; [6]", "result": 76.75, "unit": "mg/mL"}, {"measurement": "API dissolved", "setting": "[1]; [7]", "result": 70.8, "unit": "mg/mL"}, {"measurement": "Total mg dissolved", "setting": "[1]; [7]", "result": 708.0, "unit": "mg"}, {"measurement": "mg API dissolved @ RT", "setting": "[1]; [7]", "result": 401.3, "unit": "mg"}, {"measurement": "mg API dissolved temperature", "setting": "[1]; [7]", "result": 306.7, "unit": "mg"}, {"measurement": "Assay", "setting": "[1]; [7]", "result": 68.97, "unit": "mg/mL"}, {"measurement": "API dissolved", "setting": "[1]; in PEG 200 (5 g)", "result": 390.1, "unit": "mg/mL"}, {"measurement": "Total mg dissolved", "setting": "[1]; in PEG 200 (5 g)", "result": 1950.5, "unit": "mg"}, {"measurement": "mg API dissolved @ RT", "setting": "[1]; in PEG 200 (5 g)", "result": 908.2, "unit": "mg"}, {"measurement": "Assay", "setting": "[1]; in PEG 200 (5 g)", "result": 236.63, "unit": "mg/mL"}, {"measurement": "API dissolved", "setting": "[1]; in Transcutol (5 g)", "result": 400.0, "unit": "mg/mL"}, {"measurement": "Total mg dissolved", "setting": "[1]; in Transcutol (5 g)", "result": 2.000, "unit": "mg"}, {"measurement": "mg API dissolved @ RT", "setting": "[1]; in Transcutol (5 g)", "result": 1008.5, "unit": "mg"}, {"measurement": "mg API dissolved temperature", "setting": "[1]; in Transcutol (5 g)", "result": 991.5, "unit": "mg"}, {"measurement": "Assay", "setting": "[1]; in Transcutol (5 g)", "result": 189.94, "unit": "mg/mL"}, {"measurement": "API dissolved", "setting": "[1]; in Tween 80 (5 g)", "result": 204.2, "unit": "mg/mL"}, {"measurement": "Total mg dissolved", "setting": "[1]; in Tween 80 (5 g)", "result": 1020.9, "unit": "mg"}, {"measurement": "mg API dissolved @ RT", "setting": "[1]; in Tween 80 (5 g)", "result": 501.9, "unit": "mg"}, {"measurement": "mg API dissolved temperature", "setting": "[1]; in Tween 80 (5 g)", "result": 519.0, "unit": "mg"}, {"measurement": "Assay", "setting": "[1]; in Tween 80 (5 g)", "result": 169.08, "unit": "mg/mL"}, {"measurement": "API dissolved", "setting": "[1]; in Tween 80 + IPM (5 g + 1 g)", "result": 133.8, "unit": "mg/mL"}, {"measurement": "Total mg dissolved", "setting": "[1]; in Tween 80 + IPM (5 g + 1 g)", "result": 802.8, "unit": "mg"}, {"measurement": "mg API dissolved @ RT", "setting": "[1]; in Tween 80 + IPM (5 g + 1 g)", "result": 400.9, "unit": "mg"}, {"measurement": "mg API dissolved temperature", "setting": "[1]; in Tween 80 + IPM (5 g + 1 g)", "result": 401.9, "unit": "mg"}, {"measurement": "Assay", "setting": "[1]; in Tween 80 + IPM (5 g + 1 g)", "result": 113.05, "unit": "mg/mL"}, {"measurement": "API dissolved", "setting": "[1]; in Tween 80 + IPM (5 g + 3 g)", "result": 100.3, "unit": "mg/mL"}, {"measurement": "Total mg dissolved", "setting": "[1]; in Tween 80 + IPM (5 g + 3 g)", "result": 802.7, "unit": "mg"}, {"measurement": "mg API dissolved @ RT", "setting": "[1]; in Tween 80 + IPM (5 g + 3 g)", "result": 400.3, "unit": "mg"}, {"measurement": "mg API dissolved temperature", "setting": "[1]; in Tween 80 + IPM (5 g + 3 g)", "result": 402.4, "unit": "mg"}, {"measurement": "Assay", "setting": "[1]; in Tween 80 + IPM (5 g + 3 g)", "result": 84.49, "unit": "mg/mL"}, {"measurement": "API dissolved", "setting": "[1]; in Tween 80 + IPM (5 g + 5 g)", "result": 90.9, "unit": "mg/mL"}, {"measurement": "Total mg dissolved", "setting": "[1]; in Tween 80 + IPM (5 g + 5 g)", "result": 908.6, "unit": "mg"}, {"measurement": "mg API dissolved @ RT", "setting": "[1]; in Tween 80 + IPM (5 g + 5 g)", "result": 400.0, "unit": "mg"}, {"measurement": "mg API dissolved temperature", "setting": "[1]; in Tween 80 + IPM (5 g + 5 g)", "result": 508.6, "unit": "mg"}, {"measurement": "Assay", "setting": "[1]; in Tween 80 + IPM (5 g + 5 g)", "result": 52.08, "unit": "mg/mL"}, {"measurement": "API dissolved", "setting": "[1]; [8]", "result": 110.9, "unit": "mg/mL"}, {"measurement": "Total mg dissolved", "setting": "[1]; [8]", "result": 1009.1, "unit": "mg"}, {"measurement": "mg API dissolved @ RT", "setting": "[1]; [8]", "result": 501.5, "unit": "mg"}, {"measurement": "mg API dissolved temperature", "setting": "[1]; [8]", "result": 507.6, "unit": "mg"}, {"measurement": "Assay", "setting": "[1]; [8]", "result": 88.93, "unit": "mg/mL"}, {"measurement": "API dissolved", "setting": "[1]; [9]", "result": 110.1, "unit": "mg/mL"}, {"measurement": "Total mg dissolved", "setting": "[1]; [9]", "result": 1002.1, "unit": "mg"}, {"measurement": "mg API dissolved @ RT", "setting": "[1]; [9]", "result": 404.0, "unit": "mg"}, {"measurement": "mg API dissolved temperature", "setting": "[1]; [9]", "result": 602.1, "unit": "mg"}, {"measurement": "Assay", "setting": "[1]; [9]", "result": 102.12, "unit": "mg/mL"}, {"measurement": "API dissolved", "setting": "[1]; [10]", "result": 43.5, "unit": "mg/mL"}, {"measurement": "Total mg dissolved", "setting": "[1]; [10]", "result": 805.6, "unit": "mg"}, {"measurement": "mg API dissolved @ RT", "setting": "[1]; [10]", "result": 403.4, "unit": "mg"}, {"measurement": "mg API dissolved temperature", "setting": "[1]; [10]", "result": 402.2, "unit": "mg"}, {"measurement": "Assay", "setting": "[1]; [10]", "result": 39.65, "unit": "mg/mL"}, {"measurement": "mg API dissolved temperature", "setting": "[2]", "result": 1042.3, "unit": "mg"}, {"measurement": "Brinzolamide dissolved in 10 g", "setting": "[3]; in Anfopon", "result": 60, "unit": "mg"}, {"measurement": "Brinzolamide dissolved in 10 g", "setting": "[3]; in Dubcare Olga SF", "result": 60, "unit": "mg"}, {"measurement": "Brinzolamide dissolved in 10 g", "setting": "[3]; in Isopropyl Myristate (Kollicream IPM)", "result": 60, "unit": "mg"}, {"measurement": "Brinzolamide dissolved in 10 g", "setting": "[3]; in Kolliphor EL", "result": 1015.1, "unit": "mg"}, {"measurement": "Brinzolamide dissolved in 10 g", "setting": "[3]; in Kollisolv GTA", "result": 210, "unit": "mg"}, {"measurement": "Brinzolamide dissolved in 10 g", "setting": "[3]; in Myritol 318", "result": 60, "unit": "mg"}, {"measurement": "Brinzolamide dissolved in 10 g", "setting": "[3]; in PEG200", "result": 2000, "unit": "mg"}, {"measurement": "Brinzolamide dissolved in 10 g", "setting": "[3]; in Radia 7104", "result": 60, "unit": "mg"}, {"measurement": "Brinzolamide dissolved in 10 g", "setting": "[3]; in Sesame Oil", "result": 60, "unit": "mg"}, {"measurement": "Brinzolamide dissolved in 10 g", "setting": "[3]; in Silicone Oil", "result": 60, "unit": "mg"}, {"measurement": "Brinzolamide dissolved in 10 g", "setting": "[3]; in Transcutol", "result": 800, "unit": "mg"}, {"measurement": "Brinzolamide dissolved in 10 g", "setting": "[3]; in Tween 80", "result": 2000, "unit": "mg"}, {"measurement": "solubility in alcohol and methanol", "setting": "[4]; alcohol and methanol", "result": "slightly soluble"}, {"measurement": "solubility in water versus pH", "setting": "[4]; water, different pH", "result": "pH dependent with minimal solubility at neutral pH and increased solubility at more basic or acidic pH"}, {"measurement": "solubility in water", "setting": "[4]; water", "result": "insoluble"}]}
